Assay results published in patent publication US11760761B2, “Methods and compositions for targeting PD-L1” (Aligos Therapeutics, Inc., priority 2020, dated 2023).

How the values were obtained:
PD-1/PD-L1 interaction = PD-1/PD-L1 interaction (Homo sapiens (Human), UniProt Q9NZQ7); experiment: PD-1/PD-L1 NFAT Reporter Assay (Jurkat T cells / PD-L1 expressing CHO cells co-culture); type: cell-based; details: for EC50: co-culture 6 hrs at 37° C., luciferase; for Emax: Jurkat, maximum NFAT-activation level relative to the positive control (10 nM Atezolizumab)
Procedure: Blocking the PD-1/PD-L1 interaction will release the inhibitory signal and results in TCR signaling and NFAT-mediated luciferase activity.
CHO cells expressing surface-bound anti-CD3 antibodies and PD-L1 were first seeded overnight and treated with the compounds. Jurkat cells overexpressing PD-1 and a luciferase construct under NF-AT promoter were then immediately seeded on the monolayer of CHO cells. The co-culture was then incubated for 6 hrs at 37° C. Luciferase activity was assessed by adding the ONE-Glo reagent and measuring luminescence with a plate reader. EC50s values were determined from the fit of the dose-response curves Emax (%) corresponds to the maximum NFAT-activation level reached by a given compound relative to the positive control (10 nM Atezolizumab).

PDL1/PD1 = PDL1/PD1 (Homo sapiens (Human), UniProt Q9NZQ7); experiment: PDL1/PD1 Binding Assay; details: PDL1-6xHis 0.3 nM, PD1-Fc-Avi-Biotin 2.5 nM, Acceptor/Donor beads; read-out: PD-1/PD-L1 PPI IC50
Procedure: Compounds to be tested were serially diluted in DMSO, and further diluted in assay buffer (25 mM Hepes pH 7.4, 150 mM NaCl, 0.005% Tween 20, BSA 0.01%). Diluted compounds were added to the wells with final concentration of DMSO at 1%. PDL1-6×His protein was added to the wells, mixed well with compound. The plates were incubated for 30 min at room temperature. PD1-Fc-Avi-Biotin protein was added to the wells. Final concentration of PDL1 and PD1 protein is 0.3 nM and 2.5 nM, respectively. After a binding time of 30 min at room temperature, Anti-6×His Acceptor beads (final concentration 20 ug/ml) were added to the wells, and the incubation continued for 1 h. Streptavidin Donor beads (final concentration 20 ug/mL) were added at reduced light. The plates were sealed with foil and incubated in the dark for additional 1 h or overnight before reading on an Envision reader. The IC50 values were determined by fitting the curves using a four-parameter equation in Graphpad Prism 8.

Chain of PDL1/PD1 (Q9NZQ7 19-238): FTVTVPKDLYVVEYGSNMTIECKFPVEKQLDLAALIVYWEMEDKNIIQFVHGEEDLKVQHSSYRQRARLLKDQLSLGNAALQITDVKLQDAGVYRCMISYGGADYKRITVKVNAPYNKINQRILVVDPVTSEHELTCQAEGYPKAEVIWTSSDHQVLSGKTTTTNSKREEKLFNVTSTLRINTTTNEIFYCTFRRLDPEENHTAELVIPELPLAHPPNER
Chain of PD-1/PD-L1 interaction (Q9NZQ7 19-290): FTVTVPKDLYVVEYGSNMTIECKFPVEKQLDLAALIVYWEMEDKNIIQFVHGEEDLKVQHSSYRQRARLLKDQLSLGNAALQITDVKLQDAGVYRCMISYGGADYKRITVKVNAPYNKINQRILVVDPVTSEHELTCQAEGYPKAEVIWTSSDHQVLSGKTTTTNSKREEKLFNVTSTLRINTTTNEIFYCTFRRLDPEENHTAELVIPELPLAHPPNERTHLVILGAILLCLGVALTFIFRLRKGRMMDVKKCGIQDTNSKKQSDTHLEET

Structure (SMILES) | EC50 (PD-1/PD-L1 interaction) [µM] | IC50 (PDL1/PD1) [µM] | Emax (PD-1/PD-L1 interaction) [%]
COc1nc(-c2cccc(-c3cccc(-c4cc5c(c(OC)n4)[C@@H](N4CC6(CN(C(C)=O)C6)C4)CC5)c3Cl)c2Cl)cnc1CN1CC2(C1)CN(C(C)=O)C2 (single isomer, unassigned) [Compound D-18] | > 10 | ≤ 0.01 | –
COc1nc(-c2cccc(-c3cccc(-c4cc5c(c(OC)n4)[C@@H](NC[C@@H]4CCC(=O)N4)CC5)c3Cl)c2Cl)ccc1CN1CC2(CCC(=O)N2)C1 [Compound E-3] | ≤ 0.01 | ≤ 0.01 | –
COc1nc(-c2cccc(-c3cccc(-c4cc5c(c(OC)n4)C(N4CC6(CN(C(C)=O)C6)C4)CC5)c3Cl)c2Cl)cnc1CN1CC2(CCC(=O)N2)C1 (centres unmarked) [Compound C-11] | 0.01 to 0.1 | ≤ 0.01 | –
CCOC(=O)C1CN([C@H]2CCc3cc(-c4cccc(-c5cccc(-c6cnc(CN7CC8(CCC(=O)N8)C7)c(OC)n6)c5Cl)c4Cl)cc(OC)c32)C1 (single isomer, unassigned) [Compound A-3] | 0.1 to 1 | ≤ 0.01 | 84
COc1nc(-c2cccc(-c3cccc(-c4cc5c(c(OC)n4)[C@H](NC[C@@H]4CCC(=O)N4)CC5)c3Cl)c2Cl)cnc1CN1CC(O)C1 [Compound D-7] | 0.1 to 1 | ≤ 0.01 | –
COc1nc(-c2cccc(-c3cccc(-c4cc5c(c(OC)n4)[C@H](N4CC6(CN(C(C)=O)C6)C4)CC5)c3Cl)c2Cl)cnc1CN1CC2(C1)CN(C(C)=O)C2 (single isomer, unassigned) [Compound D-19] | ≤ 0.01 | ≤ 0.01 | –
COc1nc(-c2cccc(-c3cccc(-c4cc5c(c(OC)n4)[C@@H](N4CC6(CCC(=O)N6)C4)CC5)c3Cl)c2Cl)cnc1CNC[C@@H]1CCC(=O)N1 (single isomer, unassigned) [Compound D-15] | 0.01 to 0.1 | ≤ 0.01 | –
COc1cc(-c2cccc(-c3cccc(-c4cnc(CN5CC6(CCC(=O)N6)C5)c(OC)n4)c3Cl)c2Cl)cc2c1[C@H](N1CC(O)C1)CC2 (single isomer, unassigned) [Compound A-6] | – | ≤ 0.01 | 32
COc1cc(-c2cccc(-c3cccc(-c4cnc(CN5CC6(CCC(=O)N6)C5)c(OC)n4)c3Cl)c2Cl)cc2c1[C@@H](N1CC(O)C1)CC2 (single isomer, unassigned) [Compound A-5] | 0.1 to 1 | ≤ 0.01 | 102
COc1nc(-c2cccc(-c3cccc(-c4cc5c(c(OC)n4)[C@@H](NC[C@@H]4CCC(=O)N4)CC5)c3Cl)c2Cl)cnc1CN1CC(F)C1 [Compound D-4] | 0.01 to 0.1 | ≤ 0.01 | –
COc1nc(-c2cccc(-c3cccc(-c4cc5c(c(OC)n4)C(N4CCC[C@H](C(=O)O)C4)CC5)c3Cl)c2Cl)cnc1CN1CC(O)C1 (some centres unmarked) [Compound F-2] | 0.01 to 0.1 | ≤ 0.01 | –
COc1nc(-c2cccc(-c3cccc(-c4cc5c(c(OC)n4)[C@@H](N4CC6(CCC(=O)N6)C4)CC5)c3Cl)c2Cl)cnc1CN1CC2(C1)CN(C(C)=O)C2 (single isomer, unassigned) [Compound D-14] | ≤ 0.01 | ≤ 0.01 | –
COc1nc(-c2cccc(-c3cccc(-c4cc5c(c(OC)n4)C(N4CCC(C(=O)O)CC4)CC5)c3Cl)c2Cl)cnc1CN1CC(O)C1 (centres unmarked) [Compound F-3] | 0.01 to 0.1 | ≤ 0.01 | –
COc1nc(-c2cccc(-c3cccc(-c4cc5c(c(OC)n4)[C@@H](NC[C@@H]4CCC(=O)N4)CO5)c3Cl)c2Cl)cc(C)c1CN1CC2(C1)CN(C(C)=O)C2 (single isomer, unassigned) [Compound E-4] | ≤ 0.01 | ≤ 0.01 | –
COc1nc(-c2cccc(-c3cccc(-c4cc5c(c(OC)n4)[C@@H](NC[C@@H]4CCC(=O)N4)CC5)c3Cl)c2Cl)cnc1CN1CC(O)C1 [Compound D-8] | ≤ 0.01 | ≤ 0.01 | –
COc1cc(-c2cccc(-c3cccc(-c4cnc(CN5CC6(CCC(=O)N6)C5)c(OC)n4)c3Cl)c2Cl)cc2c1[C@@H](N1CC3(CCC(=O)N3)C1)CC2 (single isomer, unassigned) [Compound A-7] | – | ≤ 0.01 | 24
COc1nc(-c2cccc(-c3cccc(-c4cc5c(c(OC)n4)[C@@H](NC[C@@H]4CCC(=O)N4)CC5)c3Cl)c2Cl)cnc1CN1CC(F)(F)C1 [Compound D-5] | 0.01 to 0.1 | ≤ 0.01 | –

Structure (SMILES) | EC50 (PD-1/PD-L1 interaction) [µM] | IC50 (PDL1/PD1) [µM] | Emax (PD-1/PD-L1 interaction) [%]
COc1nc(-c2cccc(-c3cccc(-c4cc5c(c(OC)n4)C(N4CCN(C(C)=O)CC4)CC5)c3Cl)c2Cl)cnc1CN1CC2(CCC(=O)N2)C1 (centres unmarked) [Compound C-10] | 0.01 to 0.1 | ≤ 0.01 | –
COc1nc(-c2cccc(-c3cccc(-c4cc5c(c(OC)n4)[C@@H](N4CC(C(=O)O)C4)CC5)c3Cl)c2Cl)cnc1CN1C[C@@H](O)[C@@H]1C (single isomer, unassigned) [Compound H-5] | 0.01 to 0.1 | ≤ 0.01 | –
COc1nc(-c2cccc(-c3cccc(-c4cc5c(c(OC)n4)C(N4CCC(F)(F)C4)CC5)c3Cl)c2Cl)cnc1CN1CC2(CCC(=O)N2)C1 (centres unmarked) [Compound C-9] | 0.1 to 1 | ≤ 0.01 | –
COc1nc(-c2cccc(-c3cccc(-c4cc5c(c(OC)n4)[C@@H](NC[C@@H]4CCC(=O)N4)CC5)c3Cl)c2Cl)cnc1CNC[C@@H]1CCC(=O)N1 [Compound D-2] | ≤ 0.01 | ≤ 0.01 | –
COc1nc(-c2cccc(-c3cccc(-c4cc5c(c(OC)n4)C(NC[C@H]4CCC(=O)N4)CC5)c3Cl)c2Cl)cnc1CN1CC2(CCC(=O)N2)C1 (some centres unmarked) [Compound C-7] | 0.01 to 0.1 | ≤ 0.01 | –
COc1nc(-c2cccc(-c3cccc(-c4cc5c(c(OC)n4)[C@H](NC[C@@H]4CCC(=O)N4)CC5)c3Cl)c2Cl)cnc1CN1CC(OC)C1 [Compound D-10] | 1 to 10 | ≤ 0.01 | –
COc1nc(-c2cccc(-c3cccc(-c4cc5c(c(OC)n4)CCN(CC(=O)O)C5)c3Cl)c2Cl)cnc1CN1CC(C)(O)C1 [Compound J-2] | 0.01 to 0.1 | ≤ 0.01 | –
COc1nc(-c2cccc(-c3cccc(-c4cc5c(c(OC)n4)[C@@H](N4CC(C(=O)O)C4)CC5)c3Cl)c2Cl)cnc1CN1CC(OC)C1 (single isomer, unassigned) [Compound H-3] | 0.01 to 0.1 | ≤ 0.01 | –
COc1nc(-c2cccc(-c3cccc(-c4cc5c(c(OC)n4)C(NC4CN(C(C)=O)C4)CC5)c3Cl)c2Cl)cnc1CN1CC2(CCC(=O)N2)C1 (centres unmarked) [Compound C-8] | 0.01 to 0.1 | ≤ 0.01 | –
COc1cc(-c2cccc(-c3cccc(-c4cnc(CN5CC6(CCC(=O)N6)C5)c(OC)n4)c3Cl)c2Cl)cc2c1[C@H](N1CC(C(=O)O)C1)CC2 (single isomer, unassigned) [Compound B-4] | 1 to 10 | ≤ 0.01 | 65
CCOC(=O)CN[C@@H]1CCc2cc(-c3cccc(-c4cccc(-c5cnc(CN6CC7(CCC(=O)N7)C6)c(OC)n5)c4Cl)c3Cl)cc(OC)c21 (single isomer, unassigned) [Compound A-2] | 0.1 to 1 | ≤ 0.01 | 85
COc1nc(-c2cccc(-c3cccc(-c4cc5c(c(OC)n4)[C@H](N4CC6(CN(C(C)=O)C6)C4)CC5)c3Cl)c2Cl)cnc1CNC[C@@H]1CCC(=O)N1 (single isomer, unassigned) [Compound D-17] | 0.01 to 0.1 | ≤ 0.01 | –
COc1nc(-c2cccc(-c3cccc(-c4cc5c(c(OC)n4)[C@H](NC[C@@H]4CCC(=O)N4)CC5)c3Cl)c2Cl)cnc1CN1CC2(CCC(=O)N2)C1 [Compound C-2] | 0.1 to 1 | ≤ 0.01 | –
COc1cc(-c2cccc(-c3cccc(-c4cnc(CN5CC6(CCC(=O)N6)C5)c(OC)n4)c3Cl)c2Cl)cc2c1C[C@H](N1CC3(CCC(=O)N3)C1)C2 (single isomer, unassigned) [Compound A-13] | 1 to 10 | ≤ 0.01 | 58
COc1cc(-c2cccc(-c3cccc(-c4cnc(CN5CC6(CCC(=O)N6)C5)c(OC)n4)c3Cl)c2Cl)cc2c1C[C@H](N1CC(O)C1)C2 (single isomer, unassigned) [Compound A-11] | 1 to 10 | ≤ 0.01 | 84
COc1nc(-c2cccc(-c3cccc(-c4cc5c(c(OC)n4)CCN(CC(=O)O)C5)c3Cl)c2Cl)cnc1CN1CC(O)(C(F)(F)F)C1 [Compound J-3] | 1 to 10 | ≤ 0.01 | –
COc1nc(-c2cccc(-c3cccc(-c4cc5c(c(OC)n4)[C@@H](NC[C@@H]4CCC(=O)N4)CC5)c3Cl)c2Cl)cnc1CN1CC2(CCCO2)C1 [Compound D-3] | ≤ 0.01 | ≤ 0.01 | –
